Values of other authors as cited in patent US20110020272A1, “COMBINATION THERAPY FOR TREATING HEPATITIS VIRAL INFECTION” (priority 2009, published 2011).
Like-named read-outs stand apart in the source and are kept apart here.

Key:
HCV = settings: cited from earlier work; for median HCV RNA decline: experienced patients
HCV genotype 1 [1] = settings: cited from earlier work; for reduction in HCV RNA levels: after 8 days
HCV genotype 1 [2] = settings: cited from earlier work; for week 4 rapid virologic response rate: PEG-interferon alpha-2a

C=C[C@@H]1C[C@]1(NC(=O)[C@@H]1C[C@@H](Oc2cc(-c3csc(NC(=O)C(C)C)n3)nc3c(Br)c(OC)ccc23)CN1C(=O)[C@@H](NC(=O)OC1CCCC1)C(C)(C)C)C(=O)O [BI 201335]
median HCV RNA decline (HCV; combination with PEG-interferon alpha-2a/ribavirin for 28 days): 4.8-5.3 log 10 IU/ml
median HCV RNA decline (HCV; monotherapy for 14 days): 3-4.2 log 10 IU/mL

C/C=C/C[C@@H](C)[C@@H](O)[C@H]1C(=O)N[C@@H](CC)C(=O)N(C)[C@H](C)C(=O)N(CC)[C@@H](C(C)C)C(=O)N[C@@H](C(C)C)C(=O)N(C)[C@@H](CC(C)C)C(=O)N[C@@H](C)C(=O)N[C@H](C)C(=O)N(C)[C@@H](CC(C)C)C(=O)N(C)[C@@H](CC(C)C)C(=O)N(C)[C@@H](C(C)C)C(=O)N1C [DEBIO-025]
antiviral activity (HCV genotype 1 [1]; monotherapy, null responders): no antiviral activity was observed
HCV RNA decline (HCV genotype 1 [1]; triple combination with PEG-interferon alpha-2a and ribavirin, after 29 days, null responders, different dosing arms): 0.88-2.38 log 10 IU/mL

CCc1cc(CC[C@]2(C3CCCC3)CC(O)=C(Cc3nc4nc(C)cc(C)n4n3)C(=O)O2)cc(CC)n1 [Filibuvir]
rapid virologic response rate (HCV genotype 1 [2]; triple therapy with PEG-interferon alpha-2a and ribavirin, treatment naïve): 60-75%

CNC(=O)c1c(-c2ccc(F)cc2)oc2cc(N(CCO)S(C)(=O)=O)c(C3CC3)cc12 [HCV-796]
mean viral reduction (HCV; after 14 days, HCV-796 plus PEG-interferon alpha-2b vs PEG-interferon alpha-2b alone): 3.3-3.5 log 10 IU/mL
mean HCV RNA reduction (HCV; monotherapy, maximum effect after 4 days): 1.4 log 10 IU/mL

C/C=C/C[C@@H](C)[C@@H](O)[C@H]1C(=O)N[C@@H](CC)C(=O)N(C)CC(=O)N(C)[C@@H]([C@@H](C)CC)C(=O)N[C@@H](C(C)C)C(=O)N(C)[C@@H](CC(C)C)C(=O)N[C@@H](C)C(=O)N[C@H](C)C(=O)N(C)[C@@H](CC(C)C)C(=O)N(C)[C@@H](CC(C)C)C(=O)N(C)[C@@H](C(C)C)C(=O)N1C [NIM811]
mean HCV RNA decline (HCV genotype 1 [1]; combination with PEG-interferon alpha-2a, after 14 days, previous relapse): 2.78 log 10 IU/mL

CC(C)C(=O)OC[C@@]1(N=[N+]=[N-])O[C@@H](n2ccc(N)nc2=O)[C@H](OC(=O)C(C)C)[C@@H]1OC(=O)C(C)C [R1626]
virologic response rates (HCV genotype 1 [2]; after 48 weeks (4 weeks R1626 plus PEG-interferon alpha-2a with or without ribavirin, then 44 weeks PEG-interferon alpha-2a plus ribavirin) vs control arm): 52-84%
end of treatment response (HCV genotype 1 [2]; non-ribavirin arm): 52-66%
end of treatment response (HCV genotype 1 [2]; ribavirin arm): 84%
mean maximal viral load reduction from baseline (HCV; combination with PEG-IFN and RbV for 4 weeks): 5.2 log 10 IU/mL

CC(C)C(=O)OC[C@H]1O[C@@H](n2ccc(N)nc2=O)[C@](C)(F)[C@@H]1OC(=O)C(C)C [R7128]
week 4 rapid virologic response rate (HCV genotype 1 [2]; ribavirin plus R7128 500 mg twice daily, treatment naïve): 30%
week 4 rapid virologic response rate (HCV genotype 1 [2]; ribavirin plus R7128 1,500 mg twice daily, treatment naïve): 85%
mean viral decline (HCV; non responders, 1,500 mg twice daily, after 14 days): 2.7 log 10 IU/mL

CCCC[C@H](NC(=O)[C@@H]1[C@@H]2[C@H](CN1C(=O)[C@@H](NC(=O)NC1(CS(=O)(=O)C(C)(C)C)CCCCC1)C(C)(C)C)C2(C)C)C(=O)C(=O)NC1CC1 [SCH 900518]
reduction in HCV RNA levels (HCV genotype 1 [1]; 400 mg twice/day plus PEG-interferon alpha-2a/ribavirin plus ritonavir 100 mg/d): 4.01 log 10 IU/mL
reduction in HCV RNA levels (HCV genotype 1 [1]; 800 mg thrice/day plus PEG-interferon alpha-2a/ribavirin): 4.5 log 10 IU/mL

COc1ccc2c(O[C@@H]3C[C@H]4C(=O)N[C@]5(C(=O)NS(=O)(=O)C6CC6)C[C@H]5/C=C\CCCCN(C)C(=O)[C@@H]4C3)cc(-c3nc(C(C)C)cs3)nc2c1C [TMC435]
antiviral activity (HCV RNA decline) (HCV genotype 1 [1]; 4 weeks, TMC435 with PEG-interferon-alpha2a/ribavirin vs control arms, treatment-experienced): 4.3-5.3 log 10 IU/mL

CC(C)[C@H](N)C(=O)O[C@@H]1[C@@H](CO)O[C@@H](n2ccc(N)nc2=O)[C@]1(C)O [Valopicitabine]
mean HCV-RNA decline (HCV genotype 1 [1]; combination with interferon alpha, after 36 weeks, treatment naïve): 3.75-4.41 log 10 IU/mL
mean HCV-RNA decline (HCV genotype 1 [1]; monotherapy, after 14 days, prior non response to interferon based treatment): 0.15-1.21 log 10 IU/mL
